Consider three molecules from US20160044917A1, “LOW ENVIRONMENTAL IMPACT PESTICIDE MADE FROM "GRAS" INGREDIENTS FOR USE AGAINST COQUI FROGS AND OTHER SPECIES” (priority 2015, published 2016).

One data set deals with common plants. The conditions noted are these: citric acid 25%, three days after treatment, cited from earlier work.
The subject of a further data set is frogs. The experiment in a line: Frog killing time with different concentrations. The class given is in vivo. The conditions noted are these: concentrations from about 5% to about 10%. As for the experimental part:
Additionally, this formulation killed 10 out of 10 frogs within about 15 minutes. More over, concentrations using proprionic acid ranging from about 5% to about 10% were lethal to the frogs in the test group.

In a further data set the test system is human skin. The data set can be described thus: Contact of acid solution with human skin or hand. The class given is in vivo. The conditions noted are these: solution with a pH of less than 0.5. As for the experimental part:
As discussed above, AGIIS has relatively less dehydrating properties (such as charring sucrose) as compared to the saturated solution of CaSO4 in the same concentration of H2SO4. […] AGIIS has low volatility at room temperature and pressure.
In view of the need to find new phytogenic friendly alternatives for controlling the spread of Coqui frogs, a commercially available food sanitation product (i.e. Acidic Calcium Sulfate (“ACS”) was evaluated for inclusion in the current inventory of chemicals that can be applied as sprays. ACS and functional equivalents thereof are made from ingredients that are generally regarded as safe (“GRAS”), and is approved for use in food by the FDA and USDA. Although not wanting to be bound by theory, the efficacy of this product stems from its very unique characteristic of being able to donate a very high activity of hydrogen ions (low pH), while at the same time, having very low oxidative effects on plants and human skin. For example, a five (5) normal concentration of ACS having a pH of approximately zero may be held in the human hand without harm to the person holding the acid. In contrast, when very small amounts are applied to the skin of Coqui frogs it is quickly absorbed and respiration is immediately impaired with lethal results. […]

Molecules are shown by their SMILES. Like-named read-outs stand apart in the source and are kept apart here.

Take `O=C(O)CC(O)(CC(=O)O)C(=O)O` [citric acid]: the phytotoxicity rating result in the data set with common plants (bromeliad) is “moderate”; in the data set on common plants (calathea), “severe”; with common plants (dendrobium orchid), “moderate”; with common plants (eggplants) it was “severe”; in the data set with common plants (guava plant), “moderate”; with common plants (leatherleaf fern) it was “moderate”. Also, the phytotoxicity rating result in the data set on common plants (passion fruit) is “slight”; in the data set on common plants (payaya), “slight”; with common plants (streptocarpus), “severe”.

Consider `CCC(=O)O` [propionic acid], for which, in the data set on frogs, the “lethality to the frogs in the test group” value is given as “lethal”.

On to `O=S(=O)(O)O` [sulfuric acid], for which, in the data set with human skin, the “effect on hand put into the solution” value is given as “an irritation would occur”.
